Patent US9889125B2 (TAKEDA PHARMACEUTICALS U.S.A., INC., priority 2011, dated 2018)
Where a name gives a salt, the structure may show the parent alone. Values belong to the compound of their own block, whether it stands above or below them.

What was measured:
[1] = system: P2Y12 platelet reactivity; assay: Platelet function test: VerifyNow, P2Y12 platelet reactivity unit (PRU); format: in vivo, human; details: 9 days, 24 Hours Post Day 9 Dose
Text: (§1) ANOVA models with sequence, subject within sequence, period and regimen were fitted to the pharmacodynamic parameters.

[2] = system: platelet function (Vasodilator-stimulated phosphoprotein, VASP); assay: Platelet function test: Vasodilator-stimulated phosphoprotein (VASP), platelet reactivity index (PRI); format: in vivo, human; details: for Difference in the LS-Means of PRI (with PPI vs without PPI): 9 days, 24 hours post Day 9 dose
Text: as §1

[3] = system: platelet aggregation with ADP; assay: Platelet function test: Aggregometry with adenosine diphosphate (ADP), maximum platelet aggregation (MPA); format: in vivo, human; details: for MPA with 5 μM ADP, Mean (SD) / MPA with 20 μM ADP, Mean (SD): 9 days, 24 Hours Post Day 9 Dose
Text: as §1

CYP2C19 = target: T1, CYP2C19 (Homo sapiens, UniProt P33261); assay: CYP2C19 inhibition by PPIs
T1 construct: The subject was a CYP2C19 extensive metabolizer (wt/wt); from tissue; host or cells: Liver of healthy study subjects (in vivo), CYP2C19 wt/wt genotype

[4] = PPI 80 mg with clopidogrel 300-mg loading dose and 75 mg/day maintenance dose; healthy subjects; cited from earlier work
[5] = PPI group dexlansoprazole 60 mg: clopidogrel 75 mg QD alone or clopidogrel + PPI
[6] = clopidogrel with dexlansoprazole 60 mg vs clopidogrel alone
[7] = PPI group esomeprazole 40 mg: clopidogrel 75 mg QD alone or clopidogrel + PPI
[8] = PPI group lansoprazole 30 mg: clopidogrel 75 mg QD alone or clopidogrel + PPI
[9] = PPI group omeprazole 80 mg: clopidogrel 75 mg QD alone or clopidogrel + PPI
[10] = clopidogrel with lansoprazole 30 mg vs clopidogrel alone

T1 sequence (P33261 whole entry): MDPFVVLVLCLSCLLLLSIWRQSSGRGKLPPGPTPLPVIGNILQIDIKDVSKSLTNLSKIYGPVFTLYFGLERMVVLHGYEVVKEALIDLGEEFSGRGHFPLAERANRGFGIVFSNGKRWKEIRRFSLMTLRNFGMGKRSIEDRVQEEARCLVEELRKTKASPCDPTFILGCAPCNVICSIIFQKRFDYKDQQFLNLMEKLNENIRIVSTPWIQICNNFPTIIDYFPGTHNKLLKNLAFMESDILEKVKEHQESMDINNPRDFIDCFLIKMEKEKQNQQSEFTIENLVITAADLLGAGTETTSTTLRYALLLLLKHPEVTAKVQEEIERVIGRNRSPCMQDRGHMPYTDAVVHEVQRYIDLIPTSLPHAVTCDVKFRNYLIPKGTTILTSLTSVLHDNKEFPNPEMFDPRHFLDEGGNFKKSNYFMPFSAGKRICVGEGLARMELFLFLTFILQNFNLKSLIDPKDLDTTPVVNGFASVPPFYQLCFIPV

CYP2C19 inhibition (strength of inhibitor) (CYP2C19): weak CYP2C19 inhibitors
SMILES: Cc1c(OCC(F)(F)F)ccnc1C[S@@+]([O-])c1nc2ccccc2[nH]1 [Dexlansoprazole]
PRU, Mean (SD) [1, 5]: 146.7 (84.45) % | Difference in the LS-Means of PRI (with PPI vs without PPI) ([2]; clopidogrel 75 mg QD with vs without dexlansoprazole 60 mg QD): 2.0474 | effect on clopidogrel PD in terms of PRI (90% CI of LS-Mean difference against 15% boundary) [2, 6]: equivalence in PD was demonstrated | increase in mean PRI [2, 6]: 2.0% | MPA with 5 μM ADP, Mean (SD) [3, 5]: 36.2 (16.87) % | MPA with 20 μM ADP, Mean (SD) [3, 5]: 46.3 (16.93) % | difference in MPA compared with clopidogrel alone, statistical significance ([3]; clopidogrel with dexlansoprazole 60 mg, either MPA (5 and 20 μM ADP)): not statistically significant

SMILES: COC(=O)[C@H](c1ccccc1Cl)N1CCc2sccc2C1 [Clopidogrel, methyl (+)-(S)-α-(2-chlorophenyl)-6,7-dihydrothieno[3,2-c]pyridine-5 (4H)-acetate sulfate (1:1)]
PRU, Mean (SD) [1, 5]: 124.2 (79.10) % | PRU, Mean (SD) [1, 7]: 121.1 (50.64) % | PRU, Mean (SD) [1, 8]: 114.9 (56.44) % | PRU, Mean (SD) [1, 9]: 133.0 (67.62) % | MPA with 5 μM ADP, Mean (SD) [3, 5]: 34.6 (14.23) % | MPA with 20 μM ADP, Mean (SD) [3, 5]: 43.1 (13.24) % | MPA with 5 μM ADP, Mean (SD) [3, 7]: 29.3 (10.41) % | MPA with 20 μM ADP, Mean (SD) [3, 7]: 39.3 (13.22) % | MPA with 5 μM ADP, Mean (SD) [3, 8]: 28.1 (6.76) % | MPA with 20 μM ADP, Mean (SD) [3, 8]: 36.7 (9.11) % | MPA with 5 μM ADP, Mean (SD) [3, 9]: 34.2 (12.32) % | MPA with 20 μM ADP, Mean (SD) [3, 9]: 43.5 (14.00) %

CYP2C19 inhibition (strength of inhibitor) (CYP2C19): potent CYP2C19 inhibitors
SMILES: COc1ccc2nc([S@@+]([O-])Cc3ncc(C)c(OC)c3C)[nH]c2c1 [Esomeprazole]
PRU, Mean (SD) [1, 7]: 177.6 (55.37) % | Difference in the LS-Means of PRI (with PPI vs without PPI) ([2]; clopidogrel 75 mg QD with vs without esomeprazole 40 mg QD): 11.4437 | effect on clopidogrel PD in terms of PRI (90% CI of LS-Mean difference against 15% boundary) ([2]; clopidogrel with esomeprazole 40 mg vs clopidogrel alone): very similar to omeprazole 80 mg | MPA with 5 μM ADP, Mean (SD) [3, 7]: 38.2 (17.77) % | MPA with 20 μM ADP, Mean (SD) [3, 7]: 47.9 (15.77) %

CYP2C19 inhibition (strength of inhibitor) (CYP2C19): potent CYP2C19 inhibitors
SMILES: COc1ccc2[nH]c([S+]([O-])Cc3ncc(C)c(OC)c3C)nc2c1 (stereo not drawn) [Omeprazole]
PRU, Mean (SD) [1, 9]: 201.5 (59.65) % | Difference in the LS-Means of PRI (with PPI vs without PPI) ([2]; clopidogrel 75 mg QD with vs without omeprazole 80 mg QD): 11.0407 | MPA with 5 μM ADP, Mean (SD) [3, 9]: 42.5 (14.74) % | MPA with 20 μM ADP, Mean (SD) [3, 9]: 53.5 (13.75) % | metabolic DDI with clopidogrel [4]: a metabolic DDI was found to exist

CYP2C19 inhibition (strength of inhibitor) (CYP2C19): weak CYP2C19 inhibitors
SMILES: Cc1c(OCC(F)(F)F)ccnc1C[S+]([O-])c1nc2ccccc2[nH]1 (stereo not drawn) [Lansoprazole]
PRU, Mean (SD) [1, 8]: 131.8 (71.27) % | Difference in the LS-Means of PRI (with PPI vs without PPI) ([2]; clopidogrel 75 mg QD with vs without lansoprazole 30 mg QD): 4.1016 | effect on clopidogrel PD in terms of PRI (90% CI of LS-Mean difference against 15% boundary) [2, 10]: equivalence in PD was demonstrated | increase in mean PRI [2, 10]: 4.1% | MPA with 5 μM ADP, Mean (SD) [3, 8]: 30.8 (9.35) % | MPA with 20 μM ADP, Mean (SD) [3, 8]: 41.6 (12.65) %
